Assay results: patent publication US9452170B2, “Compounds and methods for inducing chondrogenesis” (The California Institute for Biomedical Research, priority 2013, dated 2016)
One block for each molecule: values may come before it.

Legend:
Human MSCs = assay: Human chondrocyte differentiation assay (immunostaining for type II collagen, Sox9 and COMP); format: cell-based; conditions: 168 h, compound 1 μM, 7 days, vs DMSO vehicle, read-out: Biological Activity (increase in staining intensity compared to vehicle control)
Procedure: Human MSCs (50,000) were plated into each well of a 96-well plate and cultured overnight. Compounds (in DMSO solution) were added to the cells at a final concentration of 1 μM, and the cells were cultured for 7 days at 5% CO2, 37° C. The cells were fixed with 10% formalin solution at room temperature for 10 min, and immunostained using antibodies specific for type II collagen (Abcam), Sox9 (Santa Cruz) and cartilage oligomeric matrix protein (COMP, Santa Cruz), and fluorescently labeled secondary antibodies (Li-Cor). The total intensity of the staining was measured using Oddyssey CLx imaging system (Li-Cor). Vehicle (DMSO) was used as control to determine the basal level of chondrocyte differentiation. […] Representative data are shown in Table 1 [A: >50% increase in staining intensity compared to vehicle control; B: 30-50% increase in staining intensity compared to vehicle control].

[1] = Quantitation of compounds in rat knee joint extract after intra-articular injection (LC-MS/MS); format: in vivo; conditions: knee joint extract (whole joint, acetonitrile extract), other: intra-articular injection, 30 μL of 100 μM solution, 30 μL of 100 μM intra-articular, read-out: Concentration observed in extract; for concentration at 0 h: T = 0 h; for concentration at 0.5 h: T = 0.5 h; for concentration at 1 h: T = 1 h; for concentration at 2 h: T = 2 h
Procedure: LC-MS/MS analysis for Chondrogenesis compounds were performed using an API 3000 equipped with an Agilent 1100 HPLC and a Leap Technologies autosampler. A HPLC Phenomenex 5 micron, 100 A Luna C18 (2) analytical column with dimensions of 2.0×50 mm (Part No. 00B-4252-B0) at a temperature of 30 C, flow rate of 0.6 mL/min, injection volume of 10 uL, and a 6.0 min run time was used. Mobile phase A1 was 0.1% formic acid in water and Mobile phase B1 was 0.1% formic acid in acetonitrile. The gradient was 90% A1/10% B1 at time 0; 90% A1/10% B1 at time 1.0 min; 10% A1/90% B1 at time 2.0 min; 10% A1/90% B1 at time 4.0 min; 90% A1/10% B1 at time 4.10 min; 90% A1/10% B1 at time 6.0 min. Analytes and internal standard quantitation were performed using Multiple Reaction Monitoring (MRM) quantitation method. Listed below are specific methods used to dose and measure exposure in plasma and the observed concentration in joint extract.
Calibration standard curve was prepared by serial dilution of a concentrated, spike solution of the compound in internal standard diluents. Internal standard diluent was prepared by dissolving the internal standard compound at a certain concentration in acetonitrile. Rat knee joint samples for each time points were individually crushed and transferred into each centrifuge tube and added 1.0-mL of internal standard diluent. Each centrifuge tube was vortexed and centrifuged for 30 minutes. From each tube, supernatant was removed and injected onto the column for analysis. In addition, plasma samples were obtained by retro-orbital bleeds into heparin coated tubes and stored at −80 C and later processed by analogy to the protocol described above for rat plasma samples.
30 μL of 100 μM compound solution (PBS with 0.1% DMSO) was injected into the intra-articular space of the right hinder knee of each animal. The animals were euthanized at indicated time points (0 hr, 0.5 hr, 1 hr, 2 hr, 4 hr and 6 hr). Four animals were used for each timepoint. The injected knee joints were harvested, flash freeze in liquid nitrogen. The whole joints were grounded into powder while frozen, mixed with 1 mL internal standard-containing acetonitrile, incubated at 4° C. overnight, vortexed and centrifuged for 30 min. The supernatant from each sample was analyzed using LC-MS/MS. Data shown in Table 2 indicates the observed concentration in knee extract. ND=Not determined.

- concentration at 0 h [1]: 434 ng/mL
- concentration at 0.5 h [1]: 9.1 ng/mL
- concentration at 1 h [1]: 4.9 ng/mL
- concentration at 2 h [1]: 0 ng/mL
SMILES: COCCc1ccc(NC(=O)c2ccccc2C(=O)O)cc1 [Compound 21]
- activation at 1 µM (Human MSCs): > 50%

- concentration at 0 h [1]: 592 ng/mL
- concentration at 0.5 h [1]: 35.4 ng/mL
- concentration at 1 h [1]: 6.3 ng/mL
- concentration at 2 h [1]: 2.5 ng/mL
SMILES: CNS(=O)(=O)c1ccc(N2Cc3ccccc3C2=O)cc1 [Compound 27]
- activation at 1 µM (Human MSCs): > 50%

- concentration at 0 h [1]: 411 ng/mL
- concentration at 0.5 h [1]: 109 ng/mL
- concentration at 1 h [1]: 52.6 ng/mL
- concentration at 2 h [1]: 15.7 ng/mL
SMILES: N#Cc1ccc(C(=O)Nc2ccccc2S(=O)(=O)N2CCOCC2)cc1 [Compound 62]
- activation at 1 µM (Human MSCs): > 50%

- concentration at 0 h [1]: 587 ng/mL
- concentration at 0.5 h [1]: 28.5 ng/mL
- concentration at 1 h [1]: 9.41 ng/mL
- concentration at 2 h [1]: 2.6 ng/mL
SMILES: CN(Cc1cccc(NC(=O)c2ccccc2C(=O)O)c1)S(C)(=O)=O [Compound 73]
- activation at 1 µM (Human MSCs): > 50%

- concentration at 0 h [1]: 566 ng/mL
- concentration at 0.5 h [1]: 25.3 ng/mL
- concentration at 1 h [1]: 4.2 ng/mL
- concentration at 2 h [1]: 0 ng/mL
SMILES: CS(=O)(=O)c1ccc(C(=O)Nc2ccccc2S(=O)(=O)N2CCOCC2)cc1 [Compound 113]
- activation at 1 µM (Human MSCs): > 50%

- concentration at 0 h [1]: 926 ng/mL
- concentration at 0.5 h [1]: 50.6 ng/mL
- concentration at 1 h [1]: 4.4 ng/mL
- concentration at 2 h [1]: 0 ng/mL
SMILES: COCCc1ccc(NC(=O)c2ccccc2NS(C)(=O)=O)cc1 [Compound 117]
- activation at 1 µM (Human MSCs): > 50%

- concentration at 0 h [1]: 4430 ng/mL
- concentration at 0.5 h [1]: 1100 ng/mL
- concentration at 1 h [1]: 741 ng/mL
- concentration at 2 h [1]: 338 ng/mL
- concentration at 4 h ([1]; T = 4 h): 38 ng/mL
- concentration at 6 h ([1]; T = 6 h): 0 ng/mL
SMILES: O=C(Nc1ccccc1S(=O)(=O)N1CCOCC1)c1ccc(F)cc1 [Compound 123]
- activation at 1 µM (Human MSCs): > 50%

- concentration at 0 h [1]: 7280 ng/mL
- concentration at 0.5 h [1]: 2940 ng/mL
- concentration at 1 h [1]: 1360 ng/mL
- concentration at 2 h [1]: 546 ng/mL
SMILES: CC1COCCN1S(=O)(=O)c1ccccc1NC(=O)c1ccc(F)cc1 (stereo not drawn) [Compound 128]
- activation at 1 µM (Human MSCs): > 50%

- concentration at 0 h [1]: 109 ng/mL
- concentration at 0.5 h [1]: 3.5 ng/mL
- concentration at 1 h [1]: 0 ng/mL
- concentration at 2 h [1]: 0 ng/mL
SMILES: COCCc1ccc(NC(=O)c2ccccc2NS(=O)(=O)c2ccccc2)cc1 [Compound 156]
- activation at 1 µM (Human MSCs): > 50%

SMILES: CC(=O)Cc1ccc(CNC(=O)c2ccccc2C(=O)O)cc1 [Compound 166]
- activation at 1 µM (Human MSCs): 30 to 50%

SMILES: NC(=O)c1ccc(CNC(=O)c2ccccc2C(=O)O)cc1 [Compound 172]
- activation at 1 µM (Human MSCs): 30 to 50%

SMILES: O=C(O)c1cc(CCCO)ccc1NC(=O)c1ccccc1C(=O)O [Compound 176]
- activation at 1 µM (Human MSCs): 30 to 50%

SMILES: COc1cc(NC(=O)c2ccccc2C(=O)O)ccc1CCCO [Compound 178]
- activation at 1 µM (Human MSCs): 30 to 50%

SMILES: O=C(O)c1cc(F)ccc1C(=O)Nc1ccc(CCCO)cc1 [Compound 180]
- activation at 1 µM (Human MSCs): 30 to 50%

SMILES: O=C(Nc1ccc(CCCO)cc1)c1cccc(F)c1C(=O)O [Compound 181]
- activation at 1 µM (Human MSCs): 30 to 50%

SMILES: O=C(O)c1cccc(F)c1C(=O)Nc1ccc(CCCO)cc1 [Compound 182]
- activation at 1 µM (Human MSCs): 30 to 50%

SMILES: O=C(O)c1ccc(F)cc1C(=O)Nc1ccc(CCCO)cc1 [Compound 183]
- activation at 1 µM (Human MSCs): 30 to 50%

SMILES: O=C(O)c1cc(Cl)ccc1C(=O)Nc1ccc(CCCO)cc1 [Compound 184]
- activation at 1 µM (Human MSCs): 30 to 50%

SMILES: O=C(Nc1ccc(CCCO)cc1)c1cccc(Cl)c1C(=O)O [Compound 185]
- activation at 1 µM (Human MSCs): 30 to 50%

SMILES: O=C(O)c1cccc(Cl)c1C(=O)Nc1ccc(CCCO)cc1 [Compound 186]
- activation at 1 µM (Human MSCs): 30 to 50%

SMILES: O=C(O)c1ccc(Cl)cc1C(=O)Nc1ccc(CCCO)cc1 [Compound 187]
- activation at 1 µM (Human MSCs): 30 to 50%

SMILES: Cc1cccc(C(=O)Nc2ccc(CCCO)cc2)c1C(=O)O [Compound 189]
- activation at 1 µM (Human MSCs): > 50%

SMILES: Cc1cccc(C(=O)O)c1C(=O)Nc1ccc(CCCO)cc1 [Compound 190]
- activation at 1 µM (Human MSCs): > 50%

SMILES: COC(=O)c1ccccc1NC(=O)Nc1cccc(C(C)=O)c1 [Compound 193]
- activation at 1 µM (Human MSCs): 30 to 50%

SMILES: COC(=O)c1ccccc1NC(=O)Nc1ccccc1C(F)(F)F [Compound 194]
- activation at 1 µM (Human MSCs): 30 to 50%

SMILES: COC(=O)c1ccccc1NC(=O)Nc1cccc(C(F)(F)F)c1 [Compound 195]
- activation at 1 µM (Human MSCs): 30 to 50%

SMILES: O=C(Nc1cccc(C(F)(F)F)c1)Nc1ccccc1C(=O)O [Compound 196]
- activation at 1 µM (Human MSCs): 30 to 50%

SMILES: COC(=O)c1ccccc1NC(=O)Nc1ccccc1C [Compound 197]
- activation at 1 µM (Human MSCs): 30 to 50%

SMILES: COC(=O)c1ccccc1NC(=O)Nc1ccc(C)cc1 [Compound 198]
- activation at 1 µM (Human MSCs): 30 to 50%

SMILES: Cc1ccccc1NC(=O)Nc1ccccc1C(=O)O [Compound 199]
- activation at 1 µM (Human MSCs): 30 to 50%

SMILES: COC(=O)c1ccccc1NC(=O)Nc1ccccc1 [Compound 200]
- activation at 1 µM (Human MSCs): 30 to 50%

SMILES: COC(=O)c1ccccc1NC(=O)Nc1ccc2ccccc2c1 [Compound 201]
- activation at 1 µM (Human MSCs): 30 to 50%

SMILES: COC(=O)c1ccccc1NC(=O)Nc1cccc(C#N)c1 [Compound 202]
- activation at 1 µM (Human MSCs): > 50%

SMILES: O=C(Nc1ccccc1)Nc1ccccc1C(=O)O [Compound 203]
- activation at 1 µM (Human MSCs): 30 to 50%

SMILES: CC(=O)c1cccc(NC(=O)Nc2ccccc2C(=O)O)c1 [Compound 204]
- activation at 1 µM (Human MSCs): 30 to 50%

SMILES: CC(=O)c1ccccc1NC(=O)Nc1ccccc1C(=O)O [Compound 205]
- activation at 1 µM (Human MSCs): 30 to 50%

SMILES: COC(=O)c1ccccc1NC(=O)Nc1ccc(C(C)=O)cc1 [Compound 206]
- activation at 1 µM (Human MSCs): 30 to 50%
